Measured values: patent publication EP4810484A1, “NEUROACTIVE ANDROGEN RECEPTOR MODULATOR AND USE THEREOF” (Endochem Pharmaceuticals (Beijing) Co., Ltd., priority 2023, dated 2025)

Columns and labels:
[1] = Log P (Table 1, no method described)
[2] = Mouse blood-brain barrier permeation assay (LC-MS/MS of serum and brain); format: in vivo, C57BL/6J mice; conditions: for concentrations of the compound detected in serum and brain (in words): 20 mg/kg intraperitoneal
Method: Mouse blood-brain barrier permeation assay
Blood was collected by decapitation from the mice (each time point/3 mice) at the following time points: 30 min, 1 h, 2 h, 3 h, 4 h, 8 h, and brain tissue and blood were harvested at 12 h, 24 h, 36 h, 48 h and 72 h. • (3) When collecting serum, heparin sodium blood collection tubes were used.
The supernatant was filtered through a 0.22 µm filter and analyzed by LC-MS/MS.

[3] = molecular target: T1, recombinant human androgen receptor (AR) protein (Homo sapiens, UniProt P10275); assay: Small molecule-protein affinity (protein-ligand coupling) assay, Biacore T200 SPR; format: binding; conditions: summary of Table 1
T1 construct: RPB252Hu03, Ile673-His918 with N-terminal His Tag; His tag (N); purchased CLOUD-CLONE CORP; WUHAN RPB252Hu03
T1 sequence (P10275 673-918): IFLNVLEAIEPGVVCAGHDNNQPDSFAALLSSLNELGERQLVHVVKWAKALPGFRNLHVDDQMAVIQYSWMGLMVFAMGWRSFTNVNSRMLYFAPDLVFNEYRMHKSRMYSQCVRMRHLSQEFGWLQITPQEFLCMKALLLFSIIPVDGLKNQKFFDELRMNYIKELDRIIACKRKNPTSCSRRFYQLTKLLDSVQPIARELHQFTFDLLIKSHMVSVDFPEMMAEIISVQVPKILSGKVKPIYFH

androgen receptors = molecular target: T2, androgen receptors (Homo sapiens, UniProt P10275); assay: Androgen Receptor Reporter Gene Assay in plasmid-transfected HEK293T cells; format: cell-based; conditions: HEK-293T
T2 construct: expressed in transfected cells; host or cells: HEK293T (ATCC, CRL-3216)
T2 sequence (P10275 1-920): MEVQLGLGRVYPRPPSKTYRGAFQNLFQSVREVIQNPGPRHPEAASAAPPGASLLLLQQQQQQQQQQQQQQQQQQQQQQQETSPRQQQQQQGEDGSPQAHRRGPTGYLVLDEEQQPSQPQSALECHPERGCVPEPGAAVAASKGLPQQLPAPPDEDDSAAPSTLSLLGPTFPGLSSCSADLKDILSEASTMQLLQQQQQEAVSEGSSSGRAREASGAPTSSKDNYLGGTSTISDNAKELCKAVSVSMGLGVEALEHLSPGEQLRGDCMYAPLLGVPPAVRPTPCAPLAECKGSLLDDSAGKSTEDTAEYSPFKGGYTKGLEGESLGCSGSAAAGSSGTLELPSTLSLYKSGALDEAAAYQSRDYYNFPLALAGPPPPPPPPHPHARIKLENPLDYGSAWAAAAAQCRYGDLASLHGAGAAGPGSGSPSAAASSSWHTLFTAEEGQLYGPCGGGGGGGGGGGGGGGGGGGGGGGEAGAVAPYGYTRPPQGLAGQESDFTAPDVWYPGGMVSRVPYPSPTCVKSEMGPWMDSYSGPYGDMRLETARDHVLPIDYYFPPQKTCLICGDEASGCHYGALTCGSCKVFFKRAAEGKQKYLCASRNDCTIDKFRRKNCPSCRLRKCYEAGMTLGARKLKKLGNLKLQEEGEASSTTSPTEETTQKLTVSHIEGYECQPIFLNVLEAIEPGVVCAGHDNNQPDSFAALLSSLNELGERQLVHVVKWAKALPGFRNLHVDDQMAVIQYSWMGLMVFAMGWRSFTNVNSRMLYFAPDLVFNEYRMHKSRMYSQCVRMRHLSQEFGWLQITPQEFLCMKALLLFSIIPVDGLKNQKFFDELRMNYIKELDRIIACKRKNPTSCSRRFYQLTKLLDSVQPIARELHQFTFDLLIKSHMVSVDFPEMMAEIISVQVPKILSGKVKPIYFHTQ

Row | SMILES | logP [1] | concentrations of the compound detected in serum and brain (in words) [2] | other results
1 | C[C@](O)(Cn1cnc(C(F)(F)F)cc1=O)C(=O)Nc1cnc(C#N)c(C(F)(F)F)c1 [Example 1] | 2.62 |  | 
2 | C[C@](O)(Cn1cnc(C(F)(F)F)cc1=O)C(=O)Nc1ccc(C#N)c(C(F)(F)F)c1 [Example 2] | 3.53 |  | 
3 | C[C@](O)(COc1ccc(C#N)cc1)C(=O)Nc1cnc(C#N)c(C(F)(F)F)c1 [Example 3, (S)-N-(6-cyano-5-(trifluoromethyl)pyridin-3-yl)-3-(4-cyanophenoxy)-2-hydroxy-2-methylpropionamide] | 2.53 | certain concentrations of the compound were detected in serum and brain up to 72 h after administration | 
4 | C[C@](O)(COc1ccc(C#N)nc1)C(=O)Nc1ccc(C#N)c(C(F)(F)F)c1 [Example 4, (S)-N-(4-cyano-3-(trifluoromethyl)phenyl)-3-((6-cyanopyridin-3-yl)oxy)-2-hydroxy-2-methylpropionamide] | 2.53 |  | 
5 | C[C@](O)(COc1ccc(C#N)nc1)C(=O)Nc1cnc(C#N)c(C(F)(F)F)c1 [Example 5, (S)-N-(6-cyano-5-(trifluoromethyl)pyridin-3-yl)-3-((6-cyanopyridin-3-yl)oxy)-2-hydroxy-2-methylpropionamide] | 1.61 |  | 
6 | C[C@](O)(COc1ccc(C#N)c(F)c1)C(=O)Nc1cnc(C#N)c(C(F)(F)F)c1 [Example 8, (S)-3-(4-cyano-3-fluorophenoxy)-N-(6-cyano-5-(trifluoromethyl)pyridin-3-yl)-2-hydroxy-2-methylpropionamide] |  | certain concentrations of the compound were detected in serum and brain up to 72 h after administration | 
7 | C[C@@](COc1ccc(C#N)nc1)(OC(=O)c1cccnc1)C(=O)Nc1ccc(C#N)c(C(F)(F)F)c1 [Example 11, (S)-1-((4-cyano-3-(trifluoromethyl)phenyl)amino)-3-((6-cyanopyridin-3-yl)oxy)-2-methyl-1-oxopropan-2-yl nicotinate] | 3.32 |  | 
8 | C[C@@](COc1ccc(C#N)cc1)(OC(=O)c1cccnc1)C(=O)Nc1cnc(C#N)c(C(F)(F)F)c1 [Example 13, (S)-1-((6-cyano-5-(trifluoromethyl)pyridin-3-yl)amino)-3-(4-cyanophenoxy)-2-methyl-1-oxopropan-2-yl nicotinate] | 3.32 | lower concentrations of the compound and higher concentrations of metabolites were detected in serum and brain | 
9 | CN(C)CCC(=O)O[C@@](C)(COc1ccc(C#N)cc1)C(=O)Nc1cnc(C#N)c(C(F)(F)F)c1 [Example 14, (S)-1-((6-cyano-5-(trifluoromethyl)pyridin-3-yl)amino)-3-(4-cyanophenoxy)-2-methyl-1-oxopropyl-2-yl 3-(dimethylamino)propanate] | 2.86 |  | 
10 | C[C@@](COc1ccc(C#N)cc1)(OC(=O)CCCC[C@@H]1CCSS1)C(=O)Nc1cnc(C#N)c(C(F)(F)F)c1 [Example 15, (S)-1-((6-cyano-5-(trifluoromethyl)pyridin-3-yl)amino)-3-(4-cyanophenoxy)-2-methyl-1-oxopropyl-2-yl 5-((R)-1,2-dithiolan-3-yl) pentanoate] |  | no effective concentration of the compound was detected in serum and brain | 
11 | CCCS(=O)(=O)O[C@@](C)(COc1ccc(C#N)cc1)C(=O)Nc1cnc(C#N)c(C(F)(F)F)c1 [Example 17, (S)-1-((6-cyano-5-(trifluoromethyl)pyridin-3-yl)amino)-3-(4-cyanophenoxy)-2-methyl-1-oxopropan-2-yl propane-1-sulfonate] | 3.07 |  | 
12 | CN1CCC(C(=O)O[C@@](C)(COc2ccc(C#N)cc2)C(=O)Nc2cnc(C#N)c(C(F)(F)F)c2)CC1 [Example 19, (S)-1-((6-cyano-5-(trifluoromethyl)pyridin-3-yl)amino)-3-(4-cyanophenoxy)-2-methyl-1-oxopropyl-2-yl-1-methylpiperidine-4-carboxylate] | 3.2 |  | 
13 | CC(C)C(=O)O[C@@](C)(COc1ccc(C#N)cc1)C(=O)Nc1cnc(C#N)c(C(F)(F)F)c1 [Example 21, (S)-1-((6-cyano-5-(trifluoromethyl)pyridin-3-yl)amino)-3-(4-cyanophenoxy)-2-methyl-1-oxopropan-2-yl isobutyrate] |  | lower concentrations of the compound and higher concentrations of metabolites were detected in serum and brain | 
14 | CC(=O)O[C@@](C)(COc1ccc(C#N)cc1)C(=O)Nc1cnc(C#N)c(C(F)(F)F)c1 [Example 24, (S)-1-((6-cyano-5-(trifluoromethyl)pyridin-3-yl)amino)-3-(4-cyanophenoxy)-2-methyl-1-oxopropan-2-yl acetate] | 2.76 |  | bioavailability in the brain ([2]; compared with the compound of Example 3): significantly improved
15 | C[C@@](COc1ccc(C#N)cc1)(OC(=O)c1ccccc1)C(=O)Nc1cnc(C#N)c(C(F)(F)F)c1 [Example 26, (S)-1-((6-cyano-5-(trifluoromethyl)pyridin-3-yl)amino)-3-(4-cyanophenoxy)-2-methyl-1-oxopropan-2-yl benzoate] | 4.65 | lower concentrations of the compound and higher concentrations of metabolites were detected in serum and brain | affinity to the androgen receptor proteins (in words) [3]: strong affinity
16 | CCC(=O)O[C@@](C)(COc1ccc(C#N)cc1)C(=O)Nc1cnc(C#N)c(C(F)(F)F)c1 [Example 28, (S)-1-((6-cyano-5-(trifluoromethyl)pyridin-3-yl)amino)-3-(4-cyanophenoxy)-2-methyl-1-oxopropan-2-yl-propionate] |  | lower concentrations of the compound and higher concentrations of metabolites were detected in serum and brain | 
17 | CN1C=CCC(C(=O)O[C@@](C)(COc2ccc(C#N)cc2)C(=O)Nc2ccc(C#N)c(C(F)(F)F)c2)=C1 [Example 35, (S)-1-((4-cyano-3-(trifluoromethyl)phenyl)amino)-3-(4-cyanophenoxy)-2-methyl-1-oxopropan-2-yl 1-methyl-1,4-dihydropyridine-3-carboxylate] | 4.45 |  | 
18 | C[C@](O)(COc1ccc(C#N)cc1)C(=O)Nc1ccc(C#N)c(C(F)(F)F)c1 [Ostarine, reference compound] | 3.49 |  | Emax (androgen receptors): 78.4%; affinity to the androgen receptor proteins (in words) [3]: no binding affinity
